Assay results from US10004701B2, “Methods and compositions for treating infection” (UNIVERSITY OF ROCHESTER, priority 2012, dated 2018).
Where a name gives a salt, the structure may show the parent alone. Read-outs that look alike come from different tables or passages of the source.

Assays:
Assay in all cases: AK assay 384-well format, Prestwick library screening
E. faecium = type: cell-based, Enterococcus faecium; details: 50 μM final drug concentration; for fold induction at 50 µM: Enterococcus faecium, 3 h
K. pneumoniae = type: cell-based, Klebsiella pneumoniae; details: 50 μM final drug concentration; for fold induction at 50 µM: Klebsiella pneumoniae, 3 h
P. aeruginosa = type: cell-based, Pseudomonas aeruginosa; details: 50 μM final drug concentration; for fold induction at 50 µM: Pseudomonas aeruginosa, 3 h
[1] = test system: A. baumannii strain 98-37-09; type: cell-based, Acinetobacter baumannii; details: 50 μM final drug concentration; for fold induction at 50 µM: Acinetobacter baumannii, 983709, 3 h
E. coli = type: cell-based, Escherichia coli; details: 50 μM final drug concentration; for fold induction at 50 µM: Escherichia coli, 3 h
[2] = test system: S. aureus strain USA300-0114; type: cell-based, Staphylococcus aureus; details: 50 μM final drug concentration; for fold induction at 50 µM: Staphylococcus aureus, USA300, 3 h
E. cloacae = type: cell-based, Enterobacter cloacae; details: 50 μM final drug concentration; for fold induction at 50 µM: Enterobacter cloacae, 3 h
[3] = cutoff for positive-scoring molecules 3-fold increase
[4] = planktonic, cutoff for positive 3-fold increase

`COc1ccc2c(c1)N(C[C@H](C)CN(C)C)c1ccccc1S2.O=C(O)/C=C\C(=O)O` [Methotrimeprazine maleat salt] was tested, and the “AK-based Prestwick Library Screening Results, E. faecium (fold increase in extracellular AK activity)” value (E. faecium; [3]) was 1.0, the “AK-based Prestwick Library Screening Results, K. pneumoniae (fold increase in extracellular AK activity)” value (K. pneumoniae; [3]) was 1.0 and the “AK-based Prestwick Library Screening Results, P. aeruginosa (fold increase in extracellular AK activity)” value (P. aeruginosa; [3]) was 1.1. For the same molecule, the “AK-based Prestwick Library Screening Results, A. baumannii (fold increase in extracellular AK activity)” value [1, 3] was 1.1, the “AK-based Prestwick Library Screening Results, E. coli (fold increase in extracellular AK activity)” value (E. coli; [3]) was 1.3 and the “AK-based Prestwick Library Screening Results, S. aureus (fold increase in extracellular AK activity)” value [2, 3] was 1.2. For the same molecule, the “AK-based Prestwick Library Screening Results, E. cloacae (fold increase in extracellular AK activity)” value (E. cloacae; [3]) was 1.8.

With `COc1ccc(OC)c(C(O)C(C)N)c1` (stereo not drawn) [Methoxamine hydrochloride] the fold induction at 50 µM (E. faecium; planktonic, cutoff for positive 3-fold increase, read-out: AK-based Prestwick Library Screening Results, E. faecium (fold increase in extracellular AK activity)) was 1, the fold induction at 50 µM (K. pneumoniae; planktonic, cutoff for positive 3-fold increase, read-out: AK-based Prestwick Library Screening Results, K. pneumoniae (fold increase in extracellular AK activity)) was 1 and the fold induction at 50 µM (P. aeruginosa; planktonic, cutoff for positive 3-fold increase, read-out: AK-based Prestwick Library Screening Results, P. aeruginosa (fold increase in extracellular AK activity)) was 1.2. It also gave a fold induction at 50 µM ([1]; planktonic, cutoff for positive 3-fold increase, read-out: AK-based Prestwick Library Screening Results, A. baumannii (fold increase in extracellular AK activity)) of 1, a fold induction at 50 µM (E. coli; planktonic, cutoff for positive 3-fold increase, read-out: AK-based Prestwick Library Screening Results, E. coli (fold increase in extracellular AK activity)) of 1.1 and a fold induction at 50 µM ([2]; planktonic, cutoff for positive 3-fold increase, read-out: AK-based Prestwick Library Screening Results, S. aureus (fold increase in extracellular AK activity)) of 0.9. It also gave a fold induction at 50 µM (E. cloacae; planktonic, cutoff for positive 3-fold increase, read-out: AK-based Prestwick Library Screening Results, E. cloacae (fold increase in extracellular AK activity)) of 1.4.

`COc1ccc2[nH]c3c(c2c1)CCN=C3C` [Methoxy-6-harmalan] was tested, and the “AK-based Prestwick Library Screening Results, E. faecium (fold increase in extracellular AK activity)” value (E. faecium; planktonic, […]) was 1.0, the “AK-based Prestwick Library Screening Results, K. pneumoniae (fold increase in extracellular AK activity)” value (K. pneumoniae; planktonic, […]) was 1.0 and the “AK-based Prestwick Library Screening Results, P. aeruginosa (fold increase in extracellular AK activity)” value (P. aeruginosa; planktonic, […]) was 1.2. For the same molecule, the “AK-based Prestwick Library Screening Results, A. baumannii (fold increase in extracellular AK activity)” value ([1]; planktonic, […]) was 1.3, the “AK-based Prestwick Library Screening Results, E. coli (fold increase in extracellular AK activity)” value (E. coli; planktonic, […]) was 1.4 and the “AK-based Prestwick Library Screening Results, S. aureus (fold increase in extracellular AK activity)” value ([2]; planktonic, […]) was 0.8. The “AK-based Prestwick Library Screening Results, E. cloacae (fold increase in extracellular AK activity)” value (E. cloacae; planktonic, […]) was 1.4.

With `COc1c2occc2cc2ccc(=O)oc12` [Methoxy-8-psoralen] the “AK-based Prestwick Library Screening Results, E. faecium (fold increase in extracellular AK activity)” value (E. faecium; [4]) was 1.1, the “AK-based Prestwick Library Screening Results, K. pneumoniae (fold increase in extracellular AK activity)” value (K. pneumoniae; [4]) was 0.9 and the “AK-based Prestwick Library Screening Results, P. aeruginosa (fold increase in extracellular AK activity)” value (P. aeruginosa; [4]) was 1.0. For the same molecule, the “AK-based Prestwick Library Screening Results, A. baumannii (fold increase in extracellular AK activity)” value [1, 4] was 1.0, the “AK-based Prestwick Library Screening Results, E. coli (fold increase in extracellular AK activity)” value (E. coli; [4]) was 1.1 and the “AK-based Prestwick Library Screening Results, S. aureus (fold increase in extracellular AK activity)” value [2, 4] was 1.0. For the same molecule, the “AK-based Prestwick Library Screening Results, E. cloacae (fold increase in extracellular AK activity)” value (E. cloacae; [4]) was 1.5.

`C[N+]1(C)[C@@H]2CC[C@H]1C[C@@H](OC(=O)C(CO)c1ccccc1)C2` (stereo partly drawn) [Methylatropine nitrate] showed a fold induction at 50 µM (E. faecium; planktonic, cutoff for positive-scoring molecules 3-fold increase, read-out: AK-based Prestwick Library Screening Results, E. faecium (fold increase in extracellular AK activity)) of 1, a fold induction at 50 µM (K. pneumoniae; planktonic, cutoff for positive-scoring molecules 3-fold increase, read-out: AK-based Prestwick Library Screening Results, K. pneumoniae (fold increase in extracellular AK activity)) of 0.6 and a fold induction at 50 µM (P. aeruginosa; planktonic, cutoff for positive-scoring molecules 3-fold increase, read-out: AK-based Prestwick Library Screening Results, P. aeruginosa (fold increase in extracellular AK activity)) of 0.7. The fold induction at 50 µM ([1]; planktonic, cutoff for positive-scoring molecules 3-fold increase, read-out: AK-based Prestwick Library Screening Results, A. baumannii (fold increase in extracellular AK activity)) was 0.7, the fold induction at 50 µM (E. coli; planktonic, cutoff for positive-scoring molecules 3-fold increase, read-out: AK-based Prestwick Library Screening Results, E. coli (fold increase in extracellular AK activity)) was 0.7 and the fold induction at 50 µM ([2]; planktonic, cutoff for positive-scoring molecules 3-fold increase, read-out: AK-based Prestwick Library Screening Results, S. aureus (fold increase in extracellular AK activity)) was 0.6. The fold induction at 50 µM (E. cloacae; planktonic, cutoff for positive-scoring molecules 3-fold increase, read-out: AK-based Prestwick Library Screening Results, E. cloacae (fold increase in extracellular AK activity)) was 0.8.

With `C[C@](N)(Cc1ccc(O)c(O)c1)C(=O)O` [Methyldopa (L,−)] the “AK-based Prestwick Library Screening Results: E. faecium (increase in extracellular AK activity)” value (E. faecium; planktonic E. faecium, 384-well, cutoff for positive-scoring molecules 3-fold increase) was 0.9, the “AK-based Prestwick Library Screening Results: K. pneumoniae (increase in extracellular AK activity)” value (K. pneumoniae; planktonic K. pneumoniae, 384-well, cutoff for positive-scoring molecules 3-fold increase) was 0.6 and the “AK-based Prestwick Library Screening Results: P. aeruginosa (increase in extracellular AK activity)” value (P. aeruginosa; planktonic P. aeruginosa, 384-well, cutoff for positive-scoring molecules 3-fold increase) was 0.4. For the same molecule, the “AK-based Prestwick Library Screening Results: A. baumannii (increase in extracellular AK activity)” value ([1]; planktonic A. baumannii, 384-well, cutoff for positive-scoring molecules 3-fold increase) was 0.5, the “AK-based Prestwick Library Screening Results: E. coli (increase in extracellular AK activity)” value (E. coli; planktonic E. coli, 384-well, cutoff for positive-scoring molecules 3-fold increase) was 0.6 and the “AK-based Prestwick Library Screening Results: S. aureus (increase in extracellular AK activity)” value ([2]; planktonic S. aureus, 384-well, cutoff for positive-scoring molecules 3-fold increase) was 0.4. For the same molecule, the “AK-based Prestwick Library Screening Results: E. cloacae (increase in extracellular AK activity)” value (E. cloacae; planktonic E. cloacae, 384-well, cutoff for positive-scoring molecules 3-fold increase) was 0.5.

In the case of `CCOC(=O)[C@@](C)(N)Cc1ccc(O)c(O)c1` [Methyldopate hydrochloride], the fold induction at 50 µM (E. faecium; planktonic E. faecium, positive cutoff 3-fold increase, read-out: AK-based Prestwick library screening result, E. faecium (fold increase in extracellular AK activity)) is reported as 1.1, the fold induction at 50 µM (K. pneumoniae; planktonic K. pneumoniae, positive cutoff 3-fold increase, read-out: AK-based Prestwick library screening result, K. pneumoniae (fold increase in extracellular AK activity)) is reported as 1.2 and the fold induction at 50 µM (P. aeruginosa; planktonic P. aeruginosa, positive cutoff 3-fold increase, read-out: AK-based Prestwick library screening result, P. aeruginosa (fold increase in extracellular AK activity)) is reported as 1.1. It also gave a fold induction at 50 µM ([1]; planktonic A. baumannii, positive cutoff 3-fold increase, read-out: AK-based Prestwick library screening result, A. baumannii (fold increase in extracellular AK activity)) of 1.4, a fold induction at 50 µM (E. coli; planktonic E. coli, positive cutoff 3-fold increase, read-out: AK-based Prestwick library screening result, E. coli (fold increase in extracellular AK activity)) of 1.2 and a fold induction at 50 µM ([2]; planktonic S. aureus, positive cutoff 3-fold increase, read-out: AK-based Prestwick library screening result, S. aureus (fold increase in extracellular AK activity)) of 1.2. The fold induction at 50 µM (E. cloacae; planktonic E. cloacae, positive cutoff 3-fold increase, read-out: AK-based Prestwick library screening result, E. cloacae (fold increase in extracellular AK activity)) was 1.8.

With `CC[C@@H](CO)NC(=O)[C@@H]1C=C2c3cccc4[nH]cc(c34)C[C@H]2N(C)C1` [Methylergometrine maleate] the fold induction at 50 µM (E. faecium; planktonic, […], read-out: AK-based Prestwick Library Screening Results, E. faecium (fold increase in extracellular AK activity)) was 0.9, the fold induction at 50 µM (K. pneumoniae; planktonic, […], read-out: AK-based Prestwick Library Screening Results, K. pneumoniae (fold increase in extracellular AK activity)) was 1 and the fold induction at 50 µM (P. aeruginosa; planktonic, […], read-out: AK-based Prestwick Library Screening Results, P. aeruginosa (fold increase in extracellular AK activity)) was 0.9. For the same molecule, the fold induction at 50 µM ([1]; planktonic, […], read-out: AK-based Prestwick Library Screening Results, A. baumannii (fold increase in extracellular AK activity)) was 0.9, the fold induction at 50 µM (E. coli; planktonic, […], read-out: AK-based Prestwick Library Screening Results, E. coli (fold increase in extracellular AK activity)) was 1 and the fold induction at 50 µM ([2]; planktonic, […], read-out: AK-based Prestwick Library Screening Results, S. aureus (fold increase in extracellular AK activity)) was 0.8. The fold induction at 50 µM (E. cloacae; planktonic, […], read-out: AK-based Prestwick Library Screening Results, E. cloacae (fold increase in extracellular AK activity)) was 1.6.

`C[C@H]1NC(=O)NC1=O` [Methylhydantoin-5-(D)] was tested, and the “AK-based Prestwick Library Screening Results, E. faecium (fold increase in extracellular AK activity)” value (E. faecium; [3]) was 1.0, the “AK-based Prestwick Library Screening Results, K. pneumoniae (fold increase in extracellular AK activity)” value (K. pneumoniae; [3]) was 1.1 and the “AK-based Prestwick Library Screening Results, P. aeruginosa (fold increase in extracellular AK activity)” value (P. aeruginosa; [3]) was 1.2. The “AK-based Prestwick Library Screening Results, A. baumannii (fold increase in extracellular AK activity)” value [1, 3] was 1.3, the “AK-based Prestwick Library Screening Results, E. coli (fold increase in extracellular AK activity)” value (E. coli; […]) was 1.2 and the “AK-based Prestwick Library Screening Results, S. aureus (fold increase in extracellular AK activity)” value [2, 3] was 1.2. For the same molecule, the “AK-based Prestwick Library Screening Results, E. cloacae (fold increase in extracellular AK activity)” value (E. cloacae; [3]) was 1.5.
